Where two headings read alike, the source gives them in different places.
Assays:
[1] = target: FGFR-4 (Homo sapiens, UniProt P22455); assay: Kinase-Glo Plus RTK selectivity assay, FGFR-4; format: biochemical; details: 10 μM ATP
Protocol: (§1) A 50 μL reaction mixture contains 40 mM Tris, pH 7.4, 10 mM MgCl2, 0.1 mg/ml BSA, 1 mM DTT, 10 μM ATP, kinase and substrate (0.2 mg/mL Poly(Glu, Tyr)/10 μM ATP). The test compounds were diluted in 10% DMSO and 5 μL of the dilution was added to a 50 μL reaction so that the final concentration of DMSO is 1% in all of reactions. The assay was performed using Kinase-Glo Plus luminescence kinase assay kit. It measures kinase activity by quantitating the amount of ATP remaining in solution following a kinase reaction. The luminescent signal from the assay is correlated with the amount of ATP present and is inversely correlated with the amount of kinase activity. The IC50 values were calculated using nonlinear regression with normalized dose−response fit using Prism GraphPad software.

[2] = target: EGFR (Homo sapiens, UniProt P00533); assay: Kinase-Glo Plus RTK selectivity assay, EGFR; format: biochemical; details: 10 μM ATP
Protocol: as §1

[3] = target: T1, EphB4 (Homo sapiens, UniProt P54760); assay: ADP-Glo in vitro RTK inhibition assay, EphB4; format: biochemical; details: ATP 50 μM
T1 sequence (P54760 16-987): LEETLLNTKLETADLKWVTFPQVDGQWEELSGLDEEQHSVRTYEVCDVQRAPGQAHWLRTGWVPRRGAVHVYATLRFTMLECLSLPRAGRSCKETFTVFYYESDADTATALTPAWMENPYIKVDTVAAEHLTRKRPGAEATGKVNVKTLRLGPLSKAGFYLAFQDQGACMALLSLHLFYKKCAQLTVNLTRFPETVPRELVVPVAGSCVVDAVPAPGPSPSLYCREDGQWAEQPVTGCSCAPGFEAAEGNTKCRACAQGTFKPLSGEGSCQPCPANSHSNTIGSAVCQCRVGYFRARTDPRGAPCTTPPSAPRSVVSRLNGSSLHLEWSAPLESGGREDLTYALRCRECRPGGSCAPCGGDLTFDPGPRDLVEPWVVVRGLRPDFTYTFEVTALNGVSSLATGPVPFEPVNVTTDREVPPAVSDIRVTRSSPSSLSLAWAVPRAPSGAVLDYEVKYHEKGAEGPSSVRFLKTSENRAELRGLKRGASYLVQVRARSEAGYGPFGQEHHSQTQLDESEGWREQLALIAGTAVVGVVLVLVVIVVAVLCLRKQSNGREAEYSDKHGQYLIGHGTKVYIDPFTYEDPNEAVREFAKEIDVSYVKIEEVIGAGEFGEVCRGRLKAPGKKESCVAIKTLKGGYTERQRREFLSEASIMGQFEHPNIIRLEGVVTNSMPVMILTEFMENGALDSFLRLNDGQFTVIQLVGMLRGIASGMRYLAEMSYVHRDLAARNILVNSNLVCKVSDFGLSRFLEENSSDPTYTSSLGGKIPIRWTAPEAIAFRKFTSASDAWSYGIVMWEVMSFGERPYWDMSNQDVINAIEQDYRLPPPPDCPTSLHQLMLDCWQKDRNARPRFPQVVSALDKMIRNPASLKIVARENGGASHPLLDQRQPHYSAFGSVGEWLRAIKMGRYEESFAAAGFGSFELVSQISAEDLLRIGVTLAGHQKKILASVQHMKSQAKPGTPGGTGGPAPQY
Protocol: (§2) In order to validate the direct effect of title compounds on VEGFR-2, Tie-2, and EphB4 kinases, we performed in vitro assay using the ADP-Glo Kinase Assay Kit (Promega, Wisconsin, USA).
(§3) The kinase assay was performed in a reaction mixture of final volume of 10 μL. […] The plate was incubated at 30°C for 1 h. After the plate was cooled at room temperature for 5 min, 5 μL of ADP-Glo reagent was added into each well to stop the reaction and consume the remaining […] within 40 min. At the end, 10 μL of kinase detection reagent was added into the well and incubated for 30 min to produce a luminescence signal. […] The assay plate was incubated at 30°C for 4 h. After the plate was cooled at room temperature for 5 min, 5 μL of ADP-Glo reagent was added into each well to stop the reaction and consume the remaining […] within 1 h. At the end, 10 μL of kinase detection reagent was added into each well and incubated for 30 min to produce a luminescence signal. The luminescence was read by VICTOR-X multi-label plate reader.

[4] = target: c-Kit (Homo sapiens, UniProt P10721); assay: Kinase-Glo Plus RTK selectivity assay, c-Kit; format: biochemical; details: 10 μM ATP
Protocol: as §1

[5] = target: TIE-2 (Homo sapiens, UniProt Q02763); assay: ADP-Glo in vitro RTK inhibition assay, TIE-2; format: biochemical; details: ATP 50 μM
Protocol: as §2, §3

[6] = target: FGFR-1 (Homo sapiens, UniProt P11362); assay: Kinase-Glo Plus RTK selectivity assay, FGFR-1; format: biochemical; details: 10 μM ATP
Protocol: The assay was performed using Kinase-Glo Plus luminescence kinase assay kit. It measures kinase activity by quantitating the amount of ATP remaining in solution following a kinase reaction. The luminescent signal from the assay is correlated with the amount of ATP present and is inversely correlated with the amount of kinase activity.

[7] = target: T2, VEGFR-2 (Homo sapiens, UniProt P35968); assay: ADP-Glo in vitro RTK inhibition assay, VEGFR-2; format: biochemical; details: ATP 50 μM
Protocol: as §2, §3

[8] = target: B-Raf (Homo sapiens, UniProt P15056); assay: Kinase-Glo Plus RTK selectivity assay, B-Raf; format: biochemical; details: 10 μM ATP
Protocol: as §1

[9] = target: VEGFR-1 (Homo sapiens, UniProt P17948); assay: Kinase-Glo Plus RTK selectivity assay, VEGFR-1; format: biochemical; details: 10 μM ATP
Protocol: as §1

[10] = system: EA.hy926; assay: Human endothelial cell (EA.hy926) viability assay, CCK-8; format: cell-based; details: CCK-8, 24 h treatment, read-out: Inhibition of human endothelial cell viability, EA.hy926 IC50
Protocol: In order to determine the anti-angiogenic effect of these multi-target inhibitors, we evaluated their effect on HECs (EA.hy926) viability using cell counting kit-8 (CCK-8) method.
The viability of HECs (EA.hy926) was assessed using the cell counting kit-8 (CCK-8, Sigma, USA) assay according to the manufacturer's instruction. […] After incubation at 37°C for 48 h, the cells were treated with tested compounds at various concentrations for 24 h. Subsequently, premixed CCK-8 and medium (10 μL) were added into the 96-well plates to monitor cell viability and were incubated at 37°C for 2 h. The number of viable cells was assessed by measurement of absorbance at 450 nm by a microplate reader. The viability rate was calculated as experimental OD value/control OD value.

[11] = target: T2, VEGFR-2; assay: VEGFR-2/cell membrane chromatography (CMC) affinity evaluation; format: binding; details: flow rate 0.6 mL/min, 37°C, 5 mM PBS pH 7.4, 270 nm
Protocol: In previous studies, artificial cultures highly expressing VEGFR-2 on HEK293 cell lines were constructed. […] Chromatographic conditions: 10 mm×2.0 mm; flow rate0.6 mL/min; column temperature 37°C; mobile phase 5 mM PBS, pH 7.4; detection wavelength 270 nm.
The VEGFR-2 cell membrane stationary phase was prepared as previous reported. Aqueous ammonium acetate buffer solution (pH 7.4, 5 mM) was pumped at a flow rate of 0.2 mL/min as the mobile phase after VEGFR-2/CMC column was loaded onto the chromatography system at the temperature of 37°C. […] The mobile phase was 5.0 mM phosphate burred saline with a 0.6 mL/min flow rate at a column temperature of 37°C. The detected wavelength was 270 nm. The test compound was injected into the VEGFR-2/CMC column and their retention characteristics were identified to evaluate their affinity with VEGFR-2.

T2 sequence (P35968 20-1356): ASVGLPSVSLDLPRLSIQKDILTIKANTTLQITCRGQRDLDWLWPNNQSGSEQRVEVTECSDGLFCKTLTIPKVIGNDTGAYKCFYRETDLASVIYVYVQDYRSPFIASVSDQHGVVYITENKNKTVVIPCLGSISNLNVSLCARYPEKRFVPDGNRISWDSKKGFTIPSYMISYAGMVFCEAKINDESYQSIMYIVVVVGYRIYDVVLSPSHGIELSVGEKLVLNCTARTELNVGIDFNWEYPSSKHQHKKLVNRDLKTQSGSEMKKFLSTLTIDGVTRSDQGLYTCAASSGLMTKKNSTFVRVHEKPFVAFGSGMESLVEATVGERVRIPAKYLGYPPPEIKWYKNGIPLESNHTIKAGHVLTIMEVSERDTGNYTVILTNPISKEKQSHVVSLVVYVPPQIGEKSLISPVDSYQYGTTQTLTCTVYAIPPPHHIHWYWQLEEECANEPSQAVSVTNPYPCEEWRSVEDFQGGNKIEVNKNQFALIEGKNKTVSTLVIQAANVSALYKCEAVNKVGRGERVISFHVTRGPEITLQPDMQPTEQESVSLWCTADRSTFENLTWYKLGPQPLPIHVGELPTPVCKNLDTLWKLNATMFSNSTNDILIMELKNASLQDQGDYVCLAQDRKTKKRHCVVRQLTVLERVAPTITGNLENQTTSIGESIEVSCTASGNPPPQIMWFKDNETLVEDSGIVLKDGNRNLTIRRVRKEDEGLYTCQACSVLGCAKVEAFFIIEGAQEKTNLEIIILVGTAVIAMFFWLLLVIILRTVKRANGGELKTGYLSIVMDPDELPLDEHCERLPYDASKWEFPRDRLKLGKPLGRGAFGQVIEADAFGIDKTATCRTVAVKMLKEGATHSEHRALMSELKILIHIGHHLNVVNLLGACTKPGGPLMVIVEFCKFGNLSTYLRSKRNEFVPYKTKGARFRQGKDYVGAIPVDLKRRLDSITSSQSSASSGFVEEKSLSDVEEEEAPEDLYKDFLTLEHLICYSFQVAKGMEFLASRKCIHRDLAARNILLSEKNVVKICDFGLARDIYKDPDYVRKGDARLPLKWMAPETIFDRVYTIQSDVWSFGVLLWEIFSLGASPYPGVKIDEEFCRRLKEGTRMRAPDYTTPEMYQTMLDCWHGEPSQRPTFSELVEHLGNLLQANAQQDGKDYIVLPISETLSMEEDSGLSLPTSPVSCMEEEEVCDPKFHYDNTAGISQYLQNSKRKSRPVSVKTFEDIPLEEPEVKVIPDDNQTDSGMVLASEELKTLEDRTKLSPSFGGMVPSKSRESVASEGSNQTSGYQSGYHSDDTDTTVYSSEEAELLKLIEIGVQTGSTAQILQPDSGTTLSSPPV
Chain of FGFR-1 (P11362 22-822, species assumed): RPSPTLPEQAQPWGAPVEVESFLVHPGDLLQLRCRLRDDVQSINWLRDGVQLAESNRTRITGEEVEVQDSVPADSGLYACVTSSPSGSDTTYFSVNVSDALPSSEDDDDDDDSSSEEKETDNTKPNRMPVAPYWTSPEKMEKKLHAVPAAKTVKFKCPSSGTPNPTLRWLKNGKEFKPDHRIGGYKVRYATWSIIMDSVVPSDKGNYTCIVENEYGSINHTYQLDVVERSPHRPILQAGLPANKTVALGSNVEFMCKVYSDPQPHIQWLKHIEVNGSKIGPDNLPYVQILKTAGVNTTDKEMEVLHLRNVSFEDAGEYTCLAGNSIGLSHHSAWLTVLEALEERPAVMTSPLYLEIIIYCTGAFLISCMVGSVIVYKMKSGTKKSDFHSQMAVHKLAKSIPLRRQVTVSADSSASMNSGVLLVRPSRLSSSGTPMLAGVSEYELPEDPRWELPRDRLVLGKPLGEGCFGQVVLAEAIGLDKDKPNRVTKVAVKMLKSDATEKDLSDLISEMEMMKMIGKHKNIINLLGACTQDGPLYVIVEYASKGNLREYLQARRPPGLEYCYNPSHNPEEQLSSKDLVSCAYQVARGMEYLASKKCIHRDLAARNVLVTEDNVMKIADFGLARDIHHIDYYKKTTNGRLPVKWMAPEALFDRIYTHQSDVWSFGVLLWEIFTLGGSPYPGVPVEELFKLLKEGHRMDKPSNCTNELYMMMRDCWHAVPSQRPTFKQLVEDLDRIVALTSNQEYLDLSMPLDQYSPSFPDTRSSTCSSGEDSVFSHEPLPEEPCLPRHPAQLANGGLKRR
Chain of FGFR-4 (P22455 22-802, species assumed): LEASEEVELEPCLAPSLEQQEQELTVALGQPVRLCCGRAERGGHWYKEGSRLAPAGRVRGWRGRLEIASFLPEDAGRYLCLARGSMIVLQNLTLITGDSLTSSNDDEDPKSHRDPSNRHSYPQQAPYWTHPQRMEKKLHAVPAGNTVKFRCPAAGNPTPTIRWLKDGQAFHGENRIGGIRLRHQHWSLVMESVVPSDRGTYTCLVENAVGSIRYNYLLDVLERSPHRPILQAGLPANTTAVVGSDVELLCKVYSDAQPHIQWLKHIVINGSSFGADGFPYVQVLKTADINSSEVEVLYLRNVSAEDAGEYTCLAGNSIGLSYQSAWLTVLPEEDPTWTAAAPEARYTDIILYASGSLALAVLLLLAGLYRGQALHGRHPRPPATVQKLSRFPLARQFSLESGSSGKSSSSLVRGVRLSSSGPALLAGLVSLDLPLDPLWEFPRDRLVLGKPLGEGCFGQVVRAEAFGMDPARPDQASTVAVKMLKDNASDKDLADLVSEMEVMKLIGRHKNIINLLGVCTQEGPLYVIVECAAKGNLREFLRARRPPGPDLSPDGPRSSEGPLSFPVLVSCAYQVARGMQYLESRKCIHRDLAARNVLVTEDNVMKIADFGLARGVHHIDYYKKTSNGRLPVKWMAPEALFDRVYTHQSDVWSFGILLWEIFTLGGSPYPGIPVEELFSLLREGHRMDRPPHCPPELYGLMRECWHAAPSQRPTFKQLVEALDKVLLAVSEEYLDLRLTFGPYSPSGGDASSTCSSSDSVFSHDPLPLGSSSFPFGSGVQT
Chain of EGFR (P00533 25-1210, species assumed): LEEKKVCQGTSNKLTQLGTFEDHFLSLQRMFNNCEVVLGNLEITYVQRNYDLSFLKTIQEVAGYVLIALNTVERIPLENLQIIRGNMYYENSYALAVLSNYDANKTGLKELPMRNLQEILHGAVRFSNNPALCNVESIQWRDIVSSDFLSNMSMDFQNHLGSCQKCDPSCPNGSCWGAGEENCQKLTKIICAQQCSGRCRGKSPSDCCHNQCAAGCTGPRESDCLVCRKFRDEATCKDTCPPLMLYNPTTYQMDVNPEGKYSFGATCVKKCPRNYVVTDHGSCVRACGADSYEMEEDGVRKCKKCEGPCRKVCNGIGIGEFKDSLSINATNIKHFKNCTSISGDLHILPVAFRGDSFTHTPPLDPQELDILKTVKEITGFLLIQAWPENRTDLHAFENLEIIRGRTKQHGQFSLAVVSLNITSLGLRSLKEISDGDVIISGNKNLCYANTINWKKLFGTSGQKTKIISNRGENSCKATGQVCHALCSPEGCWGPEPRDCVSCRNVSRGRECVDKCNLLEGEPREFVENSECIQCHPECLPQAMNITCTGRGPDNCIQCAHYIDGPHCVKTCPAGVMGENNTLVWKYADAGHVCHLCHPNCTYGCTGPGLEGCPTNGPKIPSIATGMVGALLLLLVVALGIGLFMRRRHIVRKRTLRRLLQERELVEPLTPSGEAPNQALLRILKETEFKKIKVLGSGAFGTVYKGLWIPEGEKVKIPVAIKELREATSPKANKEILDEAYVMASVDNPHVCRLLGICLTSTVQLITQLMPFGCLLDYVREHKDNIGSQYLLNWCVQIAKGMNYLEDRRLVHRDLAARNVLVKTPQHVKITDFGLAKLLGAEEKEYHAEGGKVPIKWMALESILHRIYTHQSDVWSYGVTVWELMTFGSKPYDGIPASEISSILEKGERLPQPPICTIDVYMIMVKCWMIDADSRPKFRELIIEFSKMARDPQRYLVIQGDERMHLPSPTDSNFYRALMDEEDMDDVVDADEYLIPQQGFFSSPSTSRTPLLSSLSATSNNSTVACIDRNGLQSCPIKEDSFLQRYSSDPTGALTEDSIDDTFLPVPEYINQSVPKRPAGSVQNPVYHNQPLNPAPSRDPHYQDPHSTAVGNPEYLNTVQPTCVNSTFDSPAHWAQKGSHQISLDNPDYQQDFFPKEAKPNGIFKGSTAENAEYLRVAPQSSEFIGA
Chain of c-Kit (P10721 26-976): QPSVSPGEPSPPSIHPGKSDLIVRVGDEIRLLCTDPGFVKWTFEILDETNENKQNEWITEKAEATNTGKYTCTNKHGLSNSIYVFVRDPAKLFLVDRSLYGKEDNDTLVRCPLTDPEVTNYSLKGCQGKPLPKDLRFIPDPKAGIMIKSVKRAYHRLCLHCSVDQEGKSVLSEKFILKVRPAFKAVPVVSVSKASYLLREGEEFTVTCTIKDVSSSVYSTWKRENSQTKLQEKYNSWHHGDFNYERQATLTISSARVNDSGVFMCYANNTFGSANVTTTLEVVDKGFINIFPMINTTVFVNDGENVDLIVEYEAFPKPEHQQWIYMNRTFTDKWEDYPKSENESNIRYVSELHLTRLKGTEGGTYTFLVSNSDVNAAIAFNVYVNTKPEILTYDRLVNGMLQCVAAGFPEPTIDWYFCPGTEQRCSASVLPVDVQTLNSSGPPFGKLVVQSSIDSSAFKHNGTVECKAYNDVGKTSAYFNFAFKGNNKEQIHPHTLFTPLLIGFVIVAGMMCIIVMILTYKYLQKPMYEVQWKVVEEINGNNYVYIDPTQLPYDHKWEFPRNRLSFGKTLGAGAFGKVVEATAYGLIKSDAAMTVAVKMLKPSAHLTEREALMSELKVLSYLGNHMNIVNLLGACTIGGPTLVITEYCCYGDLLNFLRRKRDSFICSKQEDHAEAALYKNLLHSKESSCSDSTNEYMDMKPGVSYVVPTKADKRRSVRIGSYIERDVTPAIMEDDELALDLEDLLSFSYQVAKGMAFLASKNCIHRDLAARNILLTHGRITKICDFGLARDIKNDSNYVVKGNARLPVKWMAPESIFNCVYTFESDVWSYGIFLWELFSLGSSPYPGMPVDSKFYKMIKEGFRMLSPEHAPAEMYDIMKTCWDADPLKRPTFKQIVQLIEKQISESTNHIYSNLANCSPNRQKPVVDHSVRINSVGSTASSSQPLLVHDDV

Compound	IC50 [1] [nM]	IC50 [2] [nM]	IC50 [3] [nM]	IC50 [4] [nM]	melting point [°C]	IC50 [5] [nM]	IC50 [6] [nM]	IC50 [7] [nM]	IC50 [8] [nM]	IC50 [9] [nM]	IC50 [10] [nM]	IC50 ([10]; Homo sapiens, EA.hy 926, 24 h) [nM]	Retention time on VEGFR-2/cell membrane stationary phase column [11] [min]
O=C(Nc1ccc(-c2ccc3c(=O)[nH]cnc3c2)cc1)Nc1ccccc1F [QDAU4, 1-(2-fluorophenyl)-3-(4-(4-oxo-3,4-dihydroquinazolin-7-yl)phenyl)urea]	83.4	113	13.9	> 500	> 300	4.91	166	1.91	136	68.3	8640	< 10000	
COc1cc2c(Nc3ccc(Br)cc3F)ncnc2cc1OCC1CCN(C)CC1 [vandetanib, reference compound]													4.5

— paper PMC5739597, “Discovery and evaluation of triple inhibitors of VEGFR-2, TIE-2 and EphB4 as anti-angiogenic and anti-cancer agents” (Oncotarget, 2017)
